Data reported in patent publication US20220064238A1, “Methods And Compositions For Modifying Transcription Factor Activity by Targeting The Human Mediator Complex Using Cell Penetrating Memetic Peptides And Methods of Treating Cancer Using The Same” (The Regents of the University of Colorado, a body corporate, priority 2020, published 2022).
Bridge positions count the residues as written; N and C are the ends. Square brackets hold non-standard residues; d marks the D form. Peptide text beside a SMILES is read from it. PEG6 = NCCOCCOCCOCCOCCOCCOCCC(=O)O; R8 = C=CCCCCCC[C@@](C)(N)C(=O)O; S5 = C=CCCC[C@](C)(N)C(=O)O

Tested on: Gal4-VP16 / Mediator
Assay: In vitro transcription on chromatin templates activated by Gal4-VP16
Type: biochemical, human
Settings: read-out: IC50, transcription in the presence of Gal4-VP16
Source text: Finally, we assessed whether the bivalent peptide would selectively block p53-dependent transcription compared with VP16, a viral activation domain. Whereas p53 and VP16 both interact with Mediator, they do so through different subunits (MED17 and MED25, respectively).
In vitro transcription: Chromatinized templates and in vitro transcription assays were generated and completed as described (Knuesel et al., 2009). Briefly, each activator (GAL4-p53AD or GAL4-VP16AD) was titrated to yield maximum transcription. While the activator bound the template, the general transcription factors (GTFs) were mixed in 0.1 M HEMG (10 mM HEPES pH 7.6, 100 mM KCl, 0.1 mM EDTA, 10% glycerol, 5.5 mM MgCl2) to give approximate final concentrations of 40 nM TFIIA, 10 nM IIB, 0.8 nM TFIID, 10 nM TFIIE, 10 nM TFIIF, 0.5 nM TFIIH and 2 nM pol II. A non-limiting amount of Mediator was then diluted in a separate salts mix (10 mM HEPES pH 7.6, 100 mM KCl, 2.5% PVA, 2.5% PEG, 7.5 mM MgCl2), along with 400 U of RNAseOUT, about 300 ng PC4 and about 300 ng HMGB1. On ice, the desired concentration of peptide was then added to the Mediator mix, followed by the GTF mix at a 5:11 ratio. The GTFs, Mediator and peptide were then incubated at least 5 minutes at 30° C. […]

SMILES: CC[C@H](C)[C@H](NC(=O)[C@H](CC(=O)O)NC(=O)[C@H](CC(=O)O)NC(=O)[C@@H]1CCCN1C(=O)[C@H](CO)NC(=O)[C@H](CC(C)C)NC(=O)CCOCCOCCOCCOCCOCCOCCNC(=O)[C@H](CCCNC(=N)N)NC(=O)[C@H](CCCNC(=N)N)NC(=O)[C@]1(C)CCCC=CCCCCCC[C@@](C)(NC(=O)[C@H](Cc2ccccc2)NC(=O)[C@H](CCCNC(=N)N)NC(=O)[C@H](CCC(=O)O)NC(=O)[C@H](CCC(N)=O)NC(=O)[C@H](CO)NC(=O)[C@H](CCCNC(=N)N)NC(C)=O)C(=O)N[C@@H](CC(=O)O)C(=O)N[C@@H](CC(C)C)C(=O)N[C@@H](Cc2c[nH]c3ccccc23)C(=O)N[C@@H](CCCCN)C(=O)N[C@@H](CCCNC(=N)N)C(=O)N[C@@H](CC(C)C)C(=O)N1)C(=O)N[C@@H](CCC(=O)O)C(=O)N[C@@H](CCC(N)=O)C(=O)N[C@@H](Cc1c[nH]c2ccccc12)C(=O)N[C@@H](Cc1ccccc1)C(=O)N[C@H](C(=O)N[C@@H](CCC(=O)O)C(=O)N[C@@H](CC(=O)O)C(N)=O)[C@@H](C)O [bivalent peptide] (Ac-RSQERF[R8]DLWKRL[S5]RR[PEG6]LSPDDIEQWFTED-NH2; staple 7-14; N-terminus assumed)
- IC50: 424 nM
